Test system: HBV DNA in mouse serum (rAAV8-1.3HBV, type D, ayw)
Test: AAV/HBV mouse model: qPCR quantification of HBV DNA in mouse serum
Type: in vivo, C57BL/6 mice
Conditions: for HBV DNA (log10, copy/μL) time (days) post-dose: 3: day 3; for HBV DNA (log10, copy/μL) time (days) post-dose: 3 / HBV DNA (log10, copy/μL) time (days) post-dose: 7 / HBV DNA (log10, copy/μL) time (days) post-dose: 14 / HBV DNA (log10, copy/μL) time (days) post-dose: 21 / HBV DNA (log10, copy/μL) time (days) post-dose: 28: i.g. days 0-27; for HBV DNA (log10, copy/μL) time (days) post-dose: 7: day 7; for HBV DNA (log10, copy/μL) time (days) post-dose: 14: day 14; for HBV DNA (log10, copy/μL) time (days) post-dose: 21: day 21; for HBV DNA (log10, copy/μL) time (days) post-dose: −1: day −1 (before first dose)
Description: Male C57BL/6 mice, 5 weeks old, free of specific pathogens, purchased from Shanghai Slac Laboratory Animal Co., Ltd., housed in independent ventilated cages. The mice were acclimatized for 3 days and then injected with the AAV/HBV virus.
rAAV8-1.3HBV (type D, ayw) was purchased from FivePlus, Beijing. It was diluted with sterile PBS to 5×10^11 v.g./mL before experiment. Each mouse was injected with 200 μL, i.e., 1×10^11 v.g.
AAV/HBV injection: rAAV8-1.3HBV was prepared into a 1×10^11 v.g./200 μL solution with sterile PBS in advance before injection. Mice were injected with 200 μL of the rAAV8-1.3HBV solution via the tail vein.
Grouping: On day 27 post virus injection, according to the serum HBV DNA, HBeAg and HBsAg results on days 14 and 21, the mice were randomized into groups of 8 or 4 and correspondingly treated according to the experimental design.
Group number: • i. Solvent group; • ii. Monotherapy group: entecavir; • iii. Monotherapy group: the compound of formula I 3 mpk; • iv. Combination group (combo): the compound of formula I 3 mpk and entecavir; • v. Monotherapy group: the compound of formula I 10 mpk; • vi. Combination group (combo): the compound of formula I 10 mpk and entecavir.
Compound treatment: On day 28 post infection, all mice were intragastrically administered a solvent or compound. The day of the first administration was counted as day 0 of experiment, and the duration of administration was from day 0 to day 27. Entecavir was administered once daily (QD) and the compound of formula I was administered twice daily (BID, 8 hr/16 hr apart). The administration volume was 10 mL/kg.
Non-endpoint blood collection: On day −1, 3, 7, 14, 21, 28, 35 or 42, about 120 μL of blood was collected from the submandibular vein, and serum was collected and assayed for HBV DNA. If blood collection and administration were on the same day, blood collection was performed about 5 hours after the first administration on that day.
Endpoints of experiment: mice in groups i-iv were euthanized on day 28. Blood was collected from the hearts of the mice, and serum was collected and assayed for HBV DNA. The endpoints of experiment for groups v and vi were on day 42.
qPCR Quantification of HBV DNA in mouse serum: The DNA was extracted from serum, and the experiment was performed by following the instructions for QIAamp 96 DNA Blood Kit. qPCR conditions: 95 ° C., 10 min, 1 cycle; 95° C., 15 s; 60° C., 1 min; 40 cycles.
Data were expressed as mean ±standard error, and statistical analysis was performed using Student t test.

[1] = entecavir 0.001 mg/kg QD, compound of formula I 3 mg/kg BID, mean ± standard error, LLOQ 2.08
[2] = day 28 (endpoint), entecavir 0.001 mg/kg QD, compound of formula I 3 mg/kg BID, mean ± standard error, LLOQ 2.08
[3] = Table 4 groups: entecavir 0.001 mg/kg QD, compound of formula I 3 mg/kg BID, i.g., mean ± standard error
[4] = compound of formula I 10 mg/kg BID, entecavir 0.001 mg/kg QD, values below LLOQ expressed as 2.08

C=C1[C@H](CO)[C@@H](O)C[C@@H]1n1cnc2c(=O)[nH]c(N)nc21 [Entecavir, 2-amino-9-[(1S,3R,4S)-4-hydroxy-3-hydroxymethyl-2-methylenecyclopentyl]-1,9-dihydro-6H-purin-6-one, reference compound]
HBV DNA (log10, copy/μL) time (days) post-dose: 3 [1]: 3.11 ± 0.10 log10, copy/μL | HBV DNA (log10, copy/μL) time (days) post-dose: 7 [1]: 2.69 ± 0.11 log10, copy/μL | HBV DNA (log10, copy/μL) time (days) post-dose: 14 [1]: 2.75 ± 0.13 log10, copy/μL | HBV DNA (log10, copy/μL) time (days) post-dose: 21 [1]: 2.79 ± 0.12 log10, copy/μL | HBV DNA (log10, copy/μL) time (days) post-dose: 28 [2]: 2.70 ± 0.17 log10, copy/μL | HBV DNA (log10, copy/μL) time (days) post-dose: −1 [3]: 4.19 ± 0.12 log10, copy/μL

C[C@]1(NC(=O)C(=O)c2c(Cl)c(C(=O)Nc3cc(F)c(F)c(F)c3)c3n2CCC3)CC[C@H](CC(=O)O)CC1 [Compound of formula I, 2-((1r,4r)-4-(2-(6-chloro-7((3,4,5-trifluorophenyl)carbamoyl)-2,3-dihydro-1H-pyrrolin-5-yl)-2-oxalylamino)-4-methylcyclohexyl)acetic acid]
HBV DNA (log10, copy/μL) time (days) post-dose: 3 [1]: 3.71 ± 0.10 log10, copy/μL | HBV DNA (log10, copy/μL) time (days) post-dose: 7 [1]: 3.63 ± 0.09 log10, copy/μL | HBV DNA (log10, copy/μL) time (days) post-dose: 14 [4]: 2.10 ± 0.02 log10, copy/μL | HBV DNA (log10, copy/μL) time (days) post-dose: 14 [1]: 3.71 ± 0.06 log10, copy/μL | HBV DNA (log10, copy/μL) time (days) post-dose: 21 [4]: 2.08 ± 0.00 log10, copy/μL | HBV DNA (log10, copy/μL) time (days) post-dose: 21 [1]: 3.61 ± 0.11 log10, copy/μL | HBV DNA (log10, copy/μL) time (days) post-dose: 28 [2]: 3.96 ± 0.11 log10, copy/μL | HBV DNA (log10, copy/μL) time (days) post-dose: 28 (day 28, compound of formula I 10 mg/kg BID, entecavir 0.001 mg/kg QD, values below LLOQ expressed as 2.08): 2.12 ± 0.04 log10, copy/μL | HBV DNA (log10, copy/μL) time (days) post-dose: 31 (day 31 (after end of dosing on day 27), compound of formula I 10 mg/kg BID, entecavir 0.001 mg/kg QD, i.g., LLOQ 2.08): 3.56 ± 0.12 log10, copy/μL | HBV DNA (log10, copy/μL) time (days) post-dose: 35 (day 35 (after end of dosing on day 27), compound of formula I 10 mg/kg BID, entecavir 0.001 mg/kg QD, i.g., LLOQ 2.08): 4.38 ± 0.09 log10, copy/μL | HBV DNA (log10, copy/μL) time (days) post-dose: 42 (day 42 (endpoint, after end of dosing on day 27), compound of formula I 10 mg/kg BID, entecavir 0.001 mg/kg QD, i.g., LLOQ 2.08): 4.64 ± 0.08 log10, copy/μL | HBV DNA (log10, copy/μL) time (days) post-dose: −1 [3]: 4.46 ± 0.07 log10, copy/μL | HBV DNA (log10, copy/μL) time (days) post-dose: −1 (Table 5 groups: compound of formula I 10 mg/kg BID, entecavir 0.001 mg/kg QD, i.g., mean ± standard error): 4.45 ± 0.07 log10, copy/μL
